IC50 data for 36 molecules are collected here from PubChem BioAssay AID1850 (Southern Research Specialized Biocontainment Screening …, 2009).

pIC50: −log10 of the molar value.

In this experiment the test system is Salmonella Typhi PhoP-promoter GFP reporter, fluorescence, 4 h. Nature of the experiment: Inhibition of PhoP regulon, Salmonella typhi GFP reporter cells, confirmation, 4 h (AID 1850).
As a reminder, the pIC50 is −log10 of the IC50, conventionally taken in molar units. Take `CN(C)CCNC(=O)c1ccc(COc2ccc(Cl)cc2Cl)cc1`: the pIC50 was 3.90. As for `O=C(N/N=C/c1cc(Br)ccc1O)c1ccncc1`, the figure is 4.46; as for `[O-][n+]1cccc2c(Br)cc(Br)c(O)c21`, 4.16; as for `Fc1ccccc1CCNCc1ccccc1`, 4.47. As for `Cc1ccc(CNCCC2=CCCCC2)cc1`, the figure is 4.34; as for `COc1ccc(/C=N/Nc2cc(C)nc3ccc(Br)cc23)cc1`, 4.72; as for `CCOc1cc(CNC(C)(C)CO)cc(Br)c1OCc1ccc(Cl)cc1Cl`, 4.36. For the molecule `CCCCCc1ccc(OCCCC[n+]2cccc(C)c2)c(CCCCC)c1`, the pIC50 is 4.23. As for `O=C(N/N=C/c1ccccc1O)c1ccncc1`, the figure is 4.44. The result for `CN1CCN(c2nc(Nc3ccc(F)cc3)nc(Nc3ccc(F)cc3)n2)CC1` reads 4.09. The result for `O=C(CN1C2=NCCCN2c2ccccc21)c1ccc(Br)s1` reads 3.83. As for `O=C(Nc1c2ccccc2nc2ccccc12)C(Cl)(Cl)Cl`, the pIC50 is 4.20. The result for `O=C(NNC(=S)NC(=O)c1ccccc1)c1ccc(O)cc1` reads 4.22. The result for `O=C(c1cccs1)c1no[n+]([O-])c1C(=O)c1cccs1` reads 4.55. The result for `O=CN/N=C/c1c(O)ccc2ccccc12` reads 4.45; that for `Nc1cccc2c(=O)c3ccccc3[nH]c12`, 4.67; that for `Cc1cccc(OCC(O)Cn2c(=N)n(CCN3CCCCC3)c3ccccc32)c1` (stereo unspecified), 4.11. `CNC[C@H](CC1CCCCC1)NC[C@H](Cc1ccccc1)NCCC12CC3CC(CC(C3)C1)C2`: the pIC50 is 4.89.

On to `CC[C@H]1OC(=O)[C@H](C)[C@@H](O[C@H]2C[C@@](C)(OC)[C@@H](O)[C@H](C)O2)[C@H](C)[C@@H](O[C@@H]2O[C@H](C)C[C@H](N(C)C)[C@H]2O)[C@](C)(OC)C[C@@H](C)C(=O)[C@H](C)[C@@H](O)[C@]1(C)O`, for which the pIC50 was 4.28. As for `CCCCCc1ccc(OCCCC[n+]2ccccc2)c(CCCCC)c1`, the figure is 4.45.

Consider `CCn1cc(C(=O)O)c(=O)c2cc(F)c(N3CCN(C(=S)NC(=O)c4ccccc4C)CC3)cc21`, for which the pIC50 is 4.83. The result for `CCCCCN=C(N)N/N=C/c1c[nH]c2ccc(OC)cc12` reads 4.42. As for `c1cc2c(cc1C1CCCCC1)c1c3n2CCN=C3CCC1`, the negative logarithm of the IC50 (pIC50) is 4.29. As for `Cc1cc(C)c2nc(C)cc(N/N=C/c3ccc(O)cc3)c2c1`, the figure is 4.44; as for `CCCCCCCC(=O)N/N=C/c1ccc([N+](=O)[O-])o1`, 4.57; as for `Cc1cc(C)c2sc(N(CCCN(C)C)C(=O)COc3ccc(Cl)cc3)nc2c1`, 4.51. As for `CCCCOc1ccc(C(=O)OC2CC(C)N(C)CC2C)cc1` (stereo unspecified), the figure is 4.06. Take `O=C(N/N=C/c1ccc([N+](=O)[O-])s1)c1cccnc1`: the pIC50 is 4.62.

In the case of `C#CCOCCOCCOCCNc1nc(N2CCN(C(=O)CCCCCCCCCCNC(=O)Cn3cc(CCCCCN)nn3)CC2)nc(N2CCN(C(=O)CCCCCCCCCCNC(=O)[C@H]([C@@H](C)CC)n3cc(CCCCN=C(N)N)nn3)CC2)n1`, the negative-log IC50 (pIC50) is 4.55.

Turning to `O=C1c2ccccc2NC(c2ccc(-c3ccc(Br)cc3)o2)N1O` (stereo unspecified), the pIC50 was 4.45.

With `O=C(COc1ccc(Br)cc1CNCCc1ccccc1)NCc1ccccc1`, the pIC50 is 3.97. Turning to `COc1cc2c3cc1Oc1cc(ccc1O)C[C@@H]1c4c(cc(OC)c(O)c4Oc4ccc(cc4)C[C@H]3N(C)CC2)CCN1C`, the pIC50 is 3.84. The result for `CC(=O)NC(c1ccc2ccccc2c1)c1ccc2cccnc2c1O` (stereo unspecified) reads 3.98; that for `O=C(N/N=C/c1cc(Cl)cc([N+](=O)[O-])c1O)C1CC1`, 3.97; that for `CC[C@H]1OC(=O)[C@H](C)[C@@H](O[C@H]2C[C@@](C)(OC)[C@@H](O)[C@H](C)O2)[C@H](C)[C@@H](O[C@@H]2O[C@H](C)C[C@H](N(C)C)[C@H]2O)[C@](C)(O)C[C@@H](C)CN(C)[C@H](C)[C@@H](O)[C@]1(C)O`, 5.92. As for `CS(=O)(=O)c1ccc([C@@H](O)[C@@H](CO)NC(=O)C(Cl)Cl)cc1`, the figure is 4.48.
